The subject of the test is NL-RLuc virus (recombinant NL4-3 proviral clone with Renilla Luciferase gene). Briefly: Inhibition of HIV replication (NL-RLuc reporter virus in MT-2 cells). The following applies: read-out: Activity. Type of test: cell-based. In short, it runs like this:
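MT-2 cells infected with NL4-3-derived NL-RLuc reporter virus (Renilla luciferase replacing part of nef) with serial compound dilutions, RPMI 1640 + 10% FBS; 5 days. Growth by luciferase; EC50 from median effect equation, ≥2 experiments.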

[1] abbreviates: MT-2 cells infected with NL-RLuc virus, 5 days of incubation, luciferase readout.

Like-named read-outs stand apart in the source and are kept apart here.

We go through three compounds from patent US20180170904A1, “PYRIDIN-3-YL ACETIC ACID DERIVATIVES AS INHIBITORS OF HUMAN IMMUNODEFICIENCY VIRUS REPLICATION” (priority 2015, published 2018).

`Cc1nc(C)c([C@H](OC(C)(C)C)C(=O)O)c(N2CCC(C)(C)CC2)c1-c1ccc(C(=O)NC(c2ccccc2)C(F)(F)F)cc1` (stereo partly drawn) [Example 88, (2S)-2-(tert-Butoxy)-2-(4-(4,4-dimethylpiperidin-1-yl)-2,6-dimethyl-5-(4-((2,2,2-trifluoro-1-phenylethyl)carbamoyl)phenyl)pyridin-3-yl)acetic acid]: the EC50 (Renilla, NL43, 120 h) was less than 100 nM.

As for “(S)-2-(tert-Butoxy)-2-(4-(4,4-dimethylpiperidin-1-yl)-5-(3-(1-(4-fluorobenzyl)-1H-tetrazol-5-yl)phenyl)-2,6-dimethylpyridin-3-yl)acetic acid and/or (S)-2-(tert-Butoxy)-2-(4-(4,4-dimethylpiperidin-1-yl)-5-(3-(2-(4-fluorobenzyl)-2H-tetrazol-5-yl)phenyl)-2,6-dimethylpyridin-3-yl)acetic acid [Example 87]”, under setting [1], the EC50 is less than 100 nM.

As for “(S)-2-(tert-Butoxy)-2-(4-(4,4-dimethylpiperidin-1-yl)-5-(4-(1-(4-fluorobenzyl)-1H-tetrazol-5-yl)phenyl)-2,6-dimethylpyridin-3-yl)acetic acid and/or (S)-2-(tert-Butoxy)-2-(4-(4,4-dimethylpiperidin-1-yl)-5-(4-(2-(4-fluorobenzyl)-2H-tetrazol-5-yl)phenyl)-2,6-dimethylpyridin-3-yl)acetic acid [Example 86]”, the EC50 under setting [1] is less than 100 nM.
